Reference: PubChem BioAssay (NCI)
Values joined by “and” are separate entries in the source; they are usually repeats but may differ in a detail not shown here. Identical values can stand only once.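 Step 1: Grow cells in 96-well plates. Step 2: Expose to compound for 48 hours at 5 concentrations. Step 3: Interpolate endpoints linearly; if unreached, use highest concentration. The concentration for 50% growth inhibition is given as GI50. At the TGI there is no net growth.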

Assays:
Assay in all cases: NCI tumour cell line growth inhibition, 48 h
[1] = tested on: UACC-257 melanoma
[2] = tested on: T-47D breast
[3] = tested on: HOP-92 NSCLC
[4] = tested on: MCF7 breast
[5] = tested on: MDA-MB-435
[6] = tested on: HCT-15 colon
[7] = tested on: HT29 colon
[8] = tested on: SF-295 CNS
[9] = tested on: 786-0 renal
[10] = tested on: UACC-62 melanoma

Structure (SMILES) | TGI [1] | GI50 [2] [µM] | TGI [2] | GI50 [3] | TGI [3] | GI50 [4] [µM] | TGI [4] | GI50 [5] [µM] | TGI [5] | GI50 [6] [µM] | TGI [6] | GI50 [7] [µM] | TGI [7] | GI50 [8] [µM] | TGI [8] | GI50 [9] [µM] | TGI [9] | GI50 [10] [µM] | TGI [10] | GI50 [1] [µM]
CN1CCN(CCCN2c3ccccc3Sc3ccc(C(F)(F)F)cc32)CC1 | 3.73 µM and 3.75 µM and 6.55 µM | 1.6 | 3.63 µM and 20.2 µM and 23.1 µM | 1.07 µM and 2.26 µM and 7.54 µM | 4.35 µM and 10.4 µM and 20.5 µM | 1.77 | 3.29 µM and 18.7 µM | 1.69 | 3.29 µM and 9.49 µM and 11.4 µM | 2.43 | 6.57 µM and 17.3 µM and 21.3 µM | 1.53 | 3.06 µM and 7.61 µM and 5.88 µM | 1.76 | 3.68 µM and 15.8 µM and 23.2 µM | 1.78 | 3.33 µM and 16.1 µM and 21.6 µM | 1.57 | 3.08 µM and 4.34 µM and 3.91 µM | 
O=C(NCc1cccs1)OC1CC2CCC1C2 (configuration not stated) | > 100 µM |  | > 100 µM |  | > 100 µM |  | > 100 µM |  | > 100 µM |  | > 100 µM |  | > 100 µM |  | > 100 µM |  | > 100 µM |  | > 100 µM | 
C=C(CN(C)C)C(=O)c1ccc(OC)cc1 | 11.6 µM |  | 4.62 µM |  | 3.28 µM |  | 21.4 µM |  | 26.4 µM |  | 5.96 µM |  | 25.1 µM |  | 45.7 µM |  | 5.78 µM |  | 20.4 µM | 
O=[N+]([O-])c1ccc(NN=C2c3ccccc3Cc3ccccc32)c([N+](=O)[O-])c1 | > 100 µM |  | > 100 µM |  | > 100 µM |  | > 100 µM |  | 5.8 µM |  | > 100 µM |  | 22.2 µM |  | > 100 µM |  | > 100 µM |  | > 100 µM | 
CCc1cccc(CC)c1NC(=O)c1ccn2c1CCc1cnc(Nc3ccc(N4CCN(C)CC4)cc3OC)nc1-2 | 4.8 µM | 1.55 | 4.18 µM | 1.95 µM | 9.66 µM | 1.12 | 7.55 µM | 2.51 | 11.7 µM | 0.0413 | 2.55 µM | 1.26 | 9.36 µM | 1.62 | 3.73 µM | 1.66 | 3.84 µM | 2.08 | 4.52 µM | 2.05
CC(=O)Nc1ccc(S(=O)(=O)c2ccc(NC(C)=O)cc2)cc1 | > 100 µM | > 100 | > 100 µM | > 100 µM | > 100 µM | > 100 | > 100 µM | > 100 | > 100 µM | > 100 | > 100 µM | > 100 | > 100 µM |  |  | > 100 | > 100 µM | > 100 | > 100 µM | > 100
[O]=[W](=[O])([OH])[OH] | > 100 µM | > 100 | > 100 µM | > 100 µM | > 100 µM | > 100 | > 100 µM | > 100 | > 100 µM | > 100 | > 100 µM | > 100 | > 100 µM | > 100 | > 100 µM | > 100 | > 100 µM | > 100 | > 100 µM | > 100
CCCN(CCC)c1ccc(/C=N/NC(=O)c2cccnc2)cc1 | > 100 µM | 28.1 | > 100 µM | 20.3 µM | 64.8 µM | 20.2 | > 100 µM | 3.63 | > 100 µM | 19.8 | > 100 µM | 11 | 32 µM | 16.5 | 55.6 µM | 32.5 | 94.8 µM | 34.7 | > 100 µM | 31
